Source: patent US11802120B2, “Fused cyclic urea derivatives as CRHR2 antagonist” (RaQualia Pharma Inc., priority 2018, dated 2023)

Target: T1, human CRHR2-alpha (Homo sapiens, UniProt Q13324)
T1 sequence (Q13324 1-411): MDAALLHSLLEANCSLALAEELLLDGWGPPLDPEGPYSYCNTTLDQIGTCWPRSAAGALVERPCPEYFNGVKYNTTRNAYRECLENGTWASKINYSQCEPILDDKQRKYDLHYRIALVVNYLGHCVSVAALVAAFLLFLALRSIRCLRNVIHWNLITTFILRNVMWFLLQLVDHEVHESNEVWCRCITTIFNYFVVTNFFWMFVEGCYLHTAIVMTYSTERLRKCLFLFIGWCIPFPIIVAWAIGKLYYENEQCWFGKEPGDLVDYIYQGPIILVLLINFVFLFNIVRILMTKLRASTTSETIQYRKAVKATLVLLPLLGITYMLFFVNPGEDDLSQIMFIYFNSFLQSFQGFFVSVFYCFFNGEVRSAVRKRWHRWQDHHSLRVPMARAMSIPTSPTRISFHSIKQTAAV
Assay: cAMP functional assay for human CRHR2 (LANCE Ultra cAMP, TR-FRET)
Type: cell-based
Settings: CHO-K1 cells expressing human CRHR2-alpha, agonist human urocortin2 at EC80, cAMP; read-out: IC50 against CRHR2
Outline: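 CHO-K1 stable lines; 4,000 cells/well; compound 30 min, 25° C; EC80 agonist (human urocortin2 → CRHR2, CRF → CRHR1) 30 min, 25° C; buffer HBSS/0.1% BSA/0.5 mM IBMX/5 mM Hepes pH 7.4; Eu-cAMP tracer + ULight antibody 60 min; TR-FRET read; IC50 from % inhibition curves.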

SMILES | IC50 [nM]
Cc1ncc(Cl)cc1C(=O)N[C@H]1CC[C@H](Cn2c(=O)n(-c3cccc4ncncc34)c3ccccc32)CC1 [Example 187, 5-chloro-2-methyl-N-((1r,4r)-4-((2-oxo-3-(quinazolin-5-yl)-2,3-dihydro-1H-benzo[d]imidazol-1-yl)methyl)cyclo-hexyl)nicotinamide] | < 300
CC(=O)N1Cc2ccc(-n3c(=O)n(C[C@H]4CC[C@H](NC(=O)c5cc(Cl)cnc5C)CC4)c4ccccc43)cc2C1 [Example 188, N-((1r,4r)-4-((3-(2-acetylisoindolin-5-yl)-2-oxo-2,3-dihydro-1H-benzo[d]imidazol-1-yl)methyl)cyclohexyl)-5-chloro-2-methylnicotinamide] | < 300
Cc1ncc(Cl)cc1C(=O)N[C@H]1CC[C@H](Cn2c(=O)n(-c3ccc4c(c3)CCC4)c3ncccc32)CC1 [Example 189, 5-chloro-N-((1r,4r)-4-((3-(2,3-dihydro-1H-inden-5-yl)-2-oxo-2,3-dihydro-1H-imidazo[4,5-b]pyridin-1-yl)methyl)cyclohexyl)-2-methylnicotinamide] | < 300
COc1ccc(-n2c(=O)n(C[C@H]3CC[C@H](NC(=O)c4cc(Cl)cnc4C)CC3)c3cccnc32)cc1 [Example 190, 5-chloro-N-((1r,4r)-4-((3-(4-methoxyphenyl)-2-oxo-2,3-dihydro-1H-imidazo [4,5-b]pyridin-1-yl)methyl)cyclohexyl)-2-methylnico-tinamide] | < 300
Cc1ncc(Cl)cc1C(=O)N[C@H]1CC[C@H](Cn2c(=O)n(-c3ccc4c(C)nn(C)c4c3)c3ccccc32)CC1 [Example 191, 5-chloro-N-((1r,4r)-4-((3-(1,3-dimethyl-1H-indazol-6-yl)-2-oxo-2,3-dihydro-1H-benzo[d]imidazol-1-yl)methyl)cyclohexyl)-2-methylnicotinamide] | < 300
CNC(=O)c1ccc(-n2c(=O)n(C[C@H]3CC[C@H](NC(=O)c4cc(Cl)cnc4C)CC3)c3cccc(C)c32)cn1 [Example 192, 5-(3-(((1r,4r)-4-(5-chloro-2-methylnicotinamido)cyclo-hexyl)methyl)-7-methyl-2-oxo-2,3-dihydro-1H-benzo [d]imidazol-1-yl)-N-methylpicolinamide] | < 300
CNC(=O)c1ccc(-n2c(=O)n(C[C@H]3CC[C@H](NC(=O)c4cc(Cl)cnc4C)CC3)c3cc(OC)ccc32)cn1 [Example 194, 5-(3-(((1r,4r)-4-(5-chloro-2-methylnicotinamido)cyclohexyl)methyl)-5-methoxy-2-oxo-2,3-dihydro-1H-benzo[d]imidazol-1-yl)-N-methylpicolinamide] | < 300
Cc1ncc(Cl)cc1C(=O)N[C@H]1CC[C@H](Cn2c(=O)n(-c3ccc4c(c3)oc(=O)n4CC3CC3)c3ccccc32)CC1 [Example 195, 5-chloro-N-((1r,4r)-4-((3-(3-(cyclopropylmethyl)-2-oxo-2,3-dihydrobenzo[d]oxazol-6-yl)-2-oxo-2,3-dihydro-1H-benzo[d]imidazol-1-yl)methyl)cyclohexyl)-2-methylnicotinamide] | < 300
Cc1ncc(Cl)cc1C(=O)N[C@H]1CC[C@H](Cn2c(=O)n(-c3cnc4c(c3)OCC(=O)N4C)c3ccccc32)CC1 [Example 196, 5-chloro-2-methyl-N-((1r,4r)-4-((3-(4-methyl-3-oxo-3,4-dihydro-2H-pyrido[3,2-b][1,4]oxazin-7-yl)-2-oxo-2,3-dihydro-1H-benzo[d]imidazol-1-yl)methyl)cyclohexyl) nicotinamide] | < 300
Cc1ncc(Cl)cc1C(=O)N[C@H]1CC[C@H](Cn2c(=O)n(-c3ccc4c(N)n[nH]c4c3)c3ccccc32)CC1 [Example 197, N-((1r,4r)-4-((3-(3-amino-1H-indazol-6-yl)-2-oxo-2,3-dihydro-1H-benzo[d]imidazol-1-yl)methyl)cyclohexyl)-5-chloro-2-methylnicotinamide] | < 300
Cc1ncc(Cl)cc1C(=O)N[C@H]1CC[C@H](Cn2c(=O)n(-c3ccc4c(N)noc4c3)c3ccccc32)CC1 [Example 198, N-((1r,4r)-4-((3-(3-aminobenzo[d]isoxazol-6-yl)-2-oxo-2,3-dihydro-1H-benzo[d]imidazol-1-yl)methyl)cyclohexyl)-5-chloro-2-methylnicotinamide] | < 300
CNC(=O)c1cc(C)c(-n2c(=O)n(C[C@H]3CC[C@H](NC(=O)c4cc(Cl)cnc4C)CC3)c3ccccc32)cn1 [Example 199, 5-(3-(((1r,4r)-4-(5-chloro-2-methylnicotinamido)cyclo-hexyl)methyl)-2-oxo-2,3-dihydro-1H-benzo[d]imidazol-1-yl)-N,4-dimethylpicolinamide] | < 300
Cc1ncc(Cl)cc1C(=O)N[C@H]1CC[C@H](Cn2c(=O)n(-c3ccc4ncsc4c3)c3ncccc32)CC1 [Example 200, N-((1r,4r)-4-((3-(benzo[d]thiazol-6-yl)-2-oxo-2,3-dihydro-1H-imidazo[4,5-b]pyridin-1-yl)methyl)cyclohexyl)-5-chloro-2-methylnicotinamide] | < 300
Cc1ncc(Cl)cc1C(=O)N[C@H]1CC[C@H](Cn2c(=O)n(-c3ccc(-c4cccnc4)nc3)c3ccccc32)CC1 [Example 201, N-((1r,4r)-4-((3-([2,3′-bipyridin]-5-yl)-2-oxo-2,3-dihydro-1H-benzo[d]imidazol-1-yl)methyl)cyclohexyl)-5-chloro-2-methylnicotinamide] | < 300
Cc1ncc(Cl)cc1C(=O)N[C@H]1CC[C@H](Cn2c(=O)n(-c3ccc(-c4cnco4)nc3)c3ccccc32)CC1 [Example 202, 5-chloro-2-methyl-N-((1r,4r)-4-((3-(6-(oxazol-5-yl)pyridin-3-yl)-2-oxo-2,3-dihydro-1H-benzo[d]imidazol-1-yl)methyl)cyclo-hexyl)nicotinamide] | < 300
Cc1ncc(Cl)cc1C(=O)N[C@H]1CC[C@H](Cn2c(=O)n(-c3ccc(-c4cn[nH]c4)nc3)c3ccccc32)CC1 [Example 203, N-((1r,4r)-4-((3-(6-(1H-pyrazol-4-yl)pyridin-3-yl)-2-oxo-2,3-dihydro-1H-benzo[d]imidazol-1-yl)methyl)cyclohexyl)-5-chloro-2-methylnicotinamide] | < 300
Cc1ncc(Cl)cc1C(=O)N[C@H]1CC[C@H](Cn2c(=O)n(-c3ccc(Br)cc3C#N)c3ccccc32)CC1 [Example 204, N-((1r,4r)-4-((3-(4-bromo-2-cyanophenyl)-2-oxo-2,3-dihydro-1H-benzo[d]imidazol-1-yl)methyl)cyclo-hexyl)-5-chloro-2-methylnicotinamide] | < 300
Cc1ncc(Cl)cc1C(=O)N[C@H]1CC[C@H](Cn2c(=O)n(-c3ccc4c(C)n[nH]c4c3)c3ccccc32)CC1 [Example 205, 5-chloro-2-methyl-N-((1r,4r)-4-((3-(3-methyl-1H-indazol-6-yl)-2-oxo-2,3-dihydro-1H-benzo[d]imidazol-1-yl)methyl)cyclohexyl)nicotinamide] | < 300
Cc1ncc(Cl)cc1C(=O)N[C@H]1CC[C@H](Cn2c(=O)n(-c3ccc4c(c3)ncn4C)c3ccccc32)CC1 [Example 206, 5-chloro-2-methyl-N-((1r,4r)-4-((1′-methyl-2-oxo-1′H-[1,5′-bibenzo[d]imidazol]-3(2H)-yl)methyl)cyclohexyl)nico-tinamide] | < 300
Cc1ncc(Cl)cc1C(=O)N[C@H]1CC[C@H](Cn2c(=O)n(-c3ccc4c(Cl)nn(C)c4c3)c3ccccc32)CC1 [Example 208, 5-chloro-N-((1r,4r)-4-((3-(3-chloro-1-methyl-1H-indazol-6-yl)-2-oxo-2,3-dihydro-1H-benzo[d]imidazol-1-yl)methyl)cyclohexyl)-2-methylnico-tinamide] | < 300
Cc1ncc(Cl)cc1C(=O)N[C@H]1CC[C@H](Cn2c(=O)n(-c3ccc4nc(C)n(C)c4c3)c3ccccc32)CC1 [Example 209, 5-chloro-N-((1r,4r)-4-((2′,3′-dimethyl-2-oxo-3′H-[1,5′-bibenzo[d]imidazol]-3(2H)-yl)methyl)cyclohexyl)-2-methylnicotinamide] | < 300
Cc1ncc(Cl)cc1C(=O)N[C@H]1CC[C@H](Cn2c(=O)n(-c3ccc4c(Cl)n[nH]c4c3)c3ccccc32)CC1 [Example 210, 5-chloro-N-((1r,4r)-4-((3-(3-chloro-1H-indazol-6-yl)-2-oxo-2,3-dihydro-1H-benzo[d]imidazol-1-yl)methyl)cyclohexyl)-2-methylnicotinamide] | < 300
Cc1ncc(Cl)cc1C(=O)N[C@H]1CC[C@H](Cn2c(=O)n(C3Cc4ccc(Br)cc4C3)c3ccncc32)CC1 (stereo partly shown) [Example 211, N-((1r,4r)-4-((1-(5-bromo-2,3-dihydro-1H-inden-2-yl)-2-oxo-1H-imidazo[4,5-c]pyridin-3(2H)-yl)methyl)cyclohexyl)-5-chloro-2-methylnicotinamide] | < 300
Cc1ncc(Cl)cc1C(=O)N[C@H]1CC[C@H](Cn2c(=O)n(-c3ccc4[nH]nc(C)c4c3)c3ncccc32)CC1 [Example 212, 5-chloro-2-methyl-N-((1r,4r)-4-((3-(3-methyl-1H-indazol-5-yl)-2-oxo-2,3-dihydro-1H-imidazo[4,5-b]pyridin-1-yl)methyl)cyclohexyl)nicotinamide] | < 300
Cc1ncc(Cl)cc1C(=O)N[C@H]1CC[C@H](Cn2c(=O)n(-c3ccc4c(c3)c(C)nn4C)c3ccccc32)CC1 [Example 213, 5-chloro-N-((1r,4r)-4-((3-(1,3-dimethyl-1H-indazol-5-yl)-2-oxo-2,3-dihydro-1H-benzo[d]imidazol-1-yl)methyl)cyclohexyl)-2-methylnicotinamide] | < 300
